The source of these data is patent publication US20180186815A1, “PHARMACEUTICAL COMPOSITIONS, METHODS FOR THEIR PREPARATION AND THEIR USE IN THE TREATMENT OF CANCER” (Urifer Ltd., priority 2016, published 2018).

Common to all, as to assay type: cell-based
Data set [1] deals with colon cancer cell line HCT 116. Nature of the data set: Growth profile / viability of HCT116 colon cancer cells, XTT test. As to conditions: Homo sapiens, HCT-116, 96 h, Control DMSO = 100%, read-out: percentage of viable cells, HCT116. In outline:
(§1)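 Cells were seeded and grown untreated overnight, then exposed to compounds at a final 5 μM (0.4% v/v DMSO). Untreated and 0.4% DMSO-only cells were the controls. Percent viable cells was measured by XTT 96 h after compound addition.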

The test system of data set [2] is colon cancer cell line HT29. Nature of the data set: Growth profile / viability of HT29 colon cancer cells, XTT test. As to conditions: Homo sapiens, HT-29, 96 h, Control DMSO = 100%, read-out: percentage of viable cells, HT29. In outline:
as §1

In data set [3] the test system is colon cancer cell line RKO. Nature of the data set: Growth profile / viability of RKO colon cancer cells, XTT test. As to conditions: 96 h, Control DMSO = 100%, read-out: percentage of viable cells, RKO. In outline:
as §1

Data set [4] in a line: Viability of FS non malignant fibroblastic cells, XTT test. As to conditions: FS cells (non-malignant fibroblastic cell line), Control DMSO = 100%, read-out: percentage of viable cells, FS. In outline:
as §1

Like-named read-outs stand apart in the source and are kept apart here.

On to `CC(C)c1ccc(-c2cn3nc(N4CCC(C(=O)N5CCN(CCN(C)C)CC5)CC4)sc3n2)cc1` [Compound Z522-0229, {2-[4-({1-[6-(4-isopropylphenyl)imidazo[2,1-b][1,3,4]thiadiazol-2-yl]piperidin-4-yl}carbonyl)piperazin-1-yl]ethyl} dimethylamine], for which the viability at 5 µM is 87% in data set [1] (first HCT116 column); 99% in data set [1] (second HCT116 column); 74% in data set [2] (first HT29 column); 77% in data set [2] (second HT29 column); 45% in data set [3] (first RKO column); 47% in data set [3] (second RKO column). Further, the viability at 96 h, 5 µM turned out to be 79% in data set [4] (first FS column) and 101% in data set [4] (second FS column).

On to `Cc1ccc(C)n1CCN1CCN(C(=O)C2CCN(c3nn4cc(-c5ccc(C(C)C)cc5)nc4s3)CC2)CC1` [Compound Z522-0232, 2-[4-({4-[2-(2,5-dimethyl-1H-pyrrol-1-yl)ethyl]piperazin-1-yl}carbonyl)piperidin-1-yl]-6-(4-isopropylphenyl) imidazo[2,1-b][1,3,4]thiadiazole], for which the viability at 5 µM turned out to be 79% in data set [1] (first HCT116 column); 68% in data set [1] (second HCT116 column); 20% in data set [2] (first HT29 column); 22% in data set [2] (second HT29 column); 35% in data set [3] (first RKO column); 38% in data set [3] (second RKO column). In addition, the results for the viability at 96 h, 5 µM in data set [4] (first FS column) and in data set [4] (second FS column) were 106% and 93%, respectively.

Turning to `CC(C)c1ccc(-c2cn3nc(N4CCC(C(=O)N5CCCCC5CCN5CCCCC5)CC4)sc3n2)cc1` (centres unmarked) [Compound Z522-0233, 6-(4-isopropylphenyl)-2-(4-{[2-(2-piperidin-1-ylethyl)piperidin-1-yl]carbonyl}piperidin-1-yl)imidazo[2,1-b][1,3,4]thiadiazole], the viability at 5 µM turned out to be 1% in data set [1] (first HCT116 column), 1% in data set [2] (first HT29 column), 0% in data set [2] (second HT29 column) and 0% in data set [3] (second RKO column). Moreover, the viability at 96 h, 5 µM in data set [4] (second FS column) stood at 3%.

With `CC(C)c1ccc(-c2cn3nc(N4CCC(C(=O)N5CCCC(CN6CCOCC6)C5)CC4)sc3n2)cc1` (centres unmarked) [Compound Z522-0237, 6-(4-isopropyl-phenyl)-2-(4-{[3-(morpholin-4-yl-methyl)piperidin-1-yl]carbonyl}piperidin-1-yl)imidazo[2,1-b][1,3,4]thiadiazole], the viability at 5 µM in data set [1] (first HCT116 column) was 74%; in data set [1] (second HCT116 column), 89%; in data set [2] (first HT29 column), 13%; in data set [2] (second HT29 column), 8%; in data set [3] (first RKO column), 11%; in data set [3] (second RKO column), 8%. Also, the viability at 96 h, 5 µM turned out to be 82% in data set [4] (first FS column) and 105% in data set [4] (second FS column).

Take `CC(C)c1ccc(-c2cn3nc(N4CCC(C(=O)N5CCN(CC(=O)N6CCN(C)CC6)CC5)CC4)sc3n2)cc1` [Compound Z522-0238, 6-(4-isopropylphenyl)-2-[4-({4-[2-(4-methylpiperazin-1-yl)-2-oxoethyl]piperazin-1-yl}carbonyl)piperidin-1-yl]imidazo[2,1-b][1,3,4]thiadiazole]: the viability at 5 µM in data set [1] (first HCT116 column) was 54%; in data set [1] (second HCT116 column), 49%; in data set [2] (first HT29 column), 6%; in data set [2] (second HT29 column), 7%; in data set [3] (first RKO column), 1%; in data set [3] (second RKO column) it was 3%. For the same compound, the viability at 96 h, 5 µM amounted to 85% in data set [4] (first FS column) and 99% in data set [4] (second FS column).

Consider `CC(C)c1ccc(-c2cn3nc(N4CCC(C(=O)N(C)CC(=O)NCCN(C)C)CC4)sc3n2)cc1` [Compound Z522-0239, N^4-(2-[2-(dimethylamino)ethyl]amino-2-oxoethyl)-1-[6-(4-isopropylphenyl)imidazo[2,1-b][1,3,4]thiadiazol-2-yl]-N^4-methyl-4-piperidinecarboxamide], for which the viability at 5 µM in data set [1] (first HCT116 column) turned out to be 80%; in data set [1] (second HCT116 column), 45%; in data set [2] (first HT29 column), 3%; in data set [2] (second HT29 column), 2%; in data set [3] (first RKO column) it was 1%; in data set [3] (second RKO column), 1%. Moreover, the viability at 96 h, 5 µM in data set [4] (first FS column) came to 83%; in data set [4] (second FS column), 96%.

For `CC(C)c1ccc(-c2cn3nc(N4CCC(C(=O)N(C)CC(=O)N5CCN(C)CC5)CC4)sc3n2)cc1` [Compound Z522-0240, 1-[6-(4-isopropylphenyl)imidazo[2,1-b][1,3,4]thiadiazol-2-yl]-N^4-methyl-N^4-[2-(4-methyl-piperazino)-2-oxoethyl]-4-piperidinecarboxamide], the viability at 5 µM came to 82% in data set [1] (first HCT116 column); 68% in data set [1] (second HCT116 column); 50% in data set [2] (first HT29 column); 53% in data set [2] (second HT29 column); 19% in data set [3] (first RKO column); 15% in data set [3] (second RKO column). The viability at 96 h, 5 µM was found to be 80% in data set [4] (first FS column) and 101% in data set [4] (second FS column).

Take `CC(C)c1ccc(-c2cn3nc(N4CCC(C(=O)N5CCN(CC(=O)NCCN(C)C)CC5)CC4)sc3n2)cc1` [Compound Z522-0241, N-[2-(dimethylamino)ethyl]-2-[4-({1-[6-(4-isopropylphenyl)imidazo[2,1-b][1,3,4]thiadiazol-2-yl]piperidin-4-yl}carbonyl)piperazin-1-yl]acetamide]: the viability at 5 µM turned out to be 33% in data set [1] (first HCT116 column); 36% in data set [1] (second HCT116 column); 0% in data set [2] (first HT29 column); 0% in data set [2] (second HT29 column); 0% in data set [3] (second RKO column). In addition, the viability at 96 h, 5 µM came out at 78% in data set [4] (first FS column) and 88% in data set [4] (second FS column).

With `CC(C)c1ccc(-c2cn3nc(N4CCC(C(=O)N5CCCN(c6ncccn6)CC5)CC4)sc3n2)cc1` [Compound Z522-0242, 6-(4-isopropylphenyl)-2-{4-[(4-pyrimidin-2-yl-1,4-diazepan-1-yl)carbonyl]piperidin-1-yl}imidazo[2,1-b][1,3,4]thiadiazole], the viability at 5 µM in data set [1] (first HCT116 column) amounted to 88%; in data set [1] (second HCT116 column) it was 86%; in data set [2] (first HT29 column), 72%; in data set [2] (second HT29 column) it was 66%; in data set [3] (first RKO column) it was 55%; in data set [3] (second RKO column), 50%. Moreover, the viability at 96 h, 5 µM in data set [4] (first FS column) was determined as 89%; in data set [4] (second FS column), 123%.
